Assay results as given in patent US9670194B2 (Calitor Sciences, LLC, priority 2013, dated 2017).
pIC50: −log10 of the molar value. Read-outs that look alike come from different tables or passages of the source.

Assays:
[1] = biological target: PI3K (p110δ/p85α) (h) (Homo sapiens (Human), UniProt O00329); assay: PI3K (p110δ/p85α) (h) non-radioactive HTRF kinase assay; format: biochemical
[2] = Compound stability in rat liver microsomes; format: in vitro ADME; details: pH 7.4; for half-life at 5 μM: rat liver microsomes 0.5 mg protein/mL, compound 5 μM, NADPH 1.0 mM, 37° C.; for CLint scaled at 5 μM: rat liver microsomes, in vivo CLint extrapolated
[3] = Pharmacokinetics after intravenous and oral administration in rats; format: in vivo, rat; details: for clearance (CL) / AUC(0-t) / half-life / Vd / CL/F: iv dosing; for bioavailability / AUC(0-t) / half-life / Vd: rat, plasma; for bioavailability: oral dose generally 5 or 10 mg/kg; for Vd: read-out: Vss
[4] = Compound stability in human liver microsomes; format: in vitro ADME; details: for half-life at 5 μM: human liver microsomes 0.5 mg protein/mL, compound 5 μM, NADPH 1.0 mM, 37° C.; for CLint scaled at 5 μM: human liver microsomes, in vivo CLint extrapolated

PI3K (p110δ/p85α) (h), sequence (O00329 whole entry): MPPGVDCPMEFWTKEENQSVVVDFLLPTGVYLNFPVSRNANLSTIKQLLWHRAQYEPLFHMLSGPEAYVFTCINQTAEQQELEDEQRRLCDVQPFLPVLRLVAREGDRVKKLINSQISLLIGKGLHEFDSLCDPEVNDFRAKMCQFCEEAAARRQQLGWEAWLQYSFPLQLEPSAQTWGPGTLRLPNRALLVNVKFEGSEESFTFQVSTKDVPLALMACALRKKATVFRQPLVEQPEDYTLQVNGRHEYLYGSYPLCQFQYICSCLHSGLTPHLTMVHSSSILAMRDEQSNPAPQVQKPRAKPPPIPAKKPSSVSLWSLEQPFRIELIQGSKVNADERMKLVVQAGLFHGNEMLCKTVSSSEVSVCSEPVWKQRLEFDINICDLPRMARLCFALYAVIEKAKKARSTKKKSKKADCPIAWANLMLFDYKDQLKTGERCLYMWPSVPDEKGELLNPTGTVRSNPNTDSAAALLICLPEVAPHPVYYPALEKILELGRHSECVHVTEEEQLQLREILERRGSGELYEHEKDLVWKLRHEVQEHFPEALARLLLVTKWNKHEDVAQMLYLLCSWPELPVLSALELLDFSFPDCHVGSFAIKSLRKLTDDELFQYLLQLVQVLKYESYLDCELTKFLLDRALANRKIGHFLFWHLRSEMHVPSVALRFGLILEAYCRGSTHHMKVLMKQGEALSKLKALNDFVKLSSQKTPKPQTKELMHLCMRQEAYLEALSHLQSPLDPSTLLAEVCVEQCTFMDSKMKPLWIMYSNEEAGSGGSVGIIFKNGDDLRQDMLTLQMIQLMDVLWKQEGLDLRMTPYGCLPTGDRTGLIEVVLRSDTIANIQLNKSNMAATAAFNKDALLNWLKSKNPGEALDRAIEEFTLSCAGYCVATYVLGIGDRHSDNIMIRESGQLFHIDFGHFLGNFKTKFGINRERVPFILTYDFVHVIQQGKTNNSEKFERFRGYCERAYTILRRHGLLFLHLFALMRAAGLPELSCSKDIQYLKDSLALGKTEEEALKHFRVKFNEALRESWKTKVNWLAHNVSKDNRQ
PI3K (p110δ/p85α) (h), sequence (P27986 whole entry partner): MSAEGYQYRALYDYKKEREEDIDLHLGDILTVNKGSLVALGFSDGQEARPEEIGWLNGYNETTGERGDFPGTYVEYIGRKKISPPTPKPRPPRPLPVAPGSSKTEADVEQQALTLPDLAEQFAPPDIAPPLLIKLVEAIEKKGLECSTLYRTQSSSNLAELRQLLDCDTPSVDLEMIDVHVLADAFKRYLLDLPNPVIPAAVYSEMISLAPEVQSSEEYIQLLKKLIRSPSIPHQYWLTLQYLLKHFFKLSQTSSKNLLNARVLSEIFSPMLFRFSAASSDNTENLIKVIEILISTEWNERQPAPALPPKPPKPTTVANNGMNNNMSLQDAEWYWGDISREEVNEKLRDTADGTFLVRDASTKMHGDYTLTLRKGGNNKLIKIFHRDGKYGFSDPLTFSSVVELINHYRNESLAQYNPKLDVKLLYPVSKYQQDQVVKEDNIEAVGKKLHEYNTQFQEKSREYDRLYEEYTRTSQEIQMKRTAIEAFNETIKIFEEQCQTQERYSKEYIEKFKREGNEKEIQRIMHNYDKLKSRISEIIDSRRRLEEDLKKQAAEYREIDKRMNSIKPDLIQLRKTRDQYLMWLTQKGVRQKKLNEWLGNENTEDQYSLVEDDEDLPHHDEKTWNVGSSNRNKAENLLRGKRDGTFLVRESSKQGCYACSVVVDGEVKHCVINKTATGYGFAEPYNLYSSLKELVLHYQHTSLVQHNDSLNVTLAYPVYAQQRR

Structure (SMILES) | half-life at 5 μM [2] [min] | CLint scaled at 5 μM [2] [mL/min/kg] | clearance (CL) ([3]; dose 1 mg/kg) [mL/min/kg] | bioavailability ([3]; iv dose 1 mg/kg) [%] | AUC(0-t) ([3]; dose 1 mg/kg) [ng·h/mL] | half-life ([3]; dose 1 mg/kg) [min] | Vd ([3]; dose 1 mg/kg) [L/kg] | half-life at 5 μM [4] [min] | CLint scaled at 5 μM [4] [mL/min/kg] | other results
CC[C@H](Nc1ncnc(N)c1-c1nnc(C)o1)c1nc2cccc(F)c2c(=O)n1-c1ccccc1 [Ex. 40, (S)-2-(1-((6-amino-5-(5-methyl-1,3,4-oxadiazol-2-yl)pyrimidin-4-yl)amino)-propyl)-5-fluoro-3-phenylquinazolin-4(3H)-one] | 12.6 | 198 | 57.3 | 112 | 292 | 40.2 | 2.99 | 28 | 62.1 | pIC50 [1]: 7.03
CC(C)c1noc(-c2c(N)ncnc2N[C@@H](C)c2nc3cccc(Cl)c3c(=O)n2C2CC2)n1 [Ex. 57, (S)-2-(1-((6-amino-5-(3-isopropyl-1,2,4-oxadiazol-5-yl)pyrimidin-4-yl)amino)-ethyl)-5-chloro-3-cyclopropylquinazolin-4(3H)-one] | 10.4 | 239 | 83 | 12.1 | 199 | 59.4 | 5.84 | 18.2 | 95.2 | pIC50 [1]: 8.22
CC[C@H](Nc1ncnc(N)c1-c1nnc(C)o1)c1nc2cccc(Cl)c2c(=O)n1-c1ccccc1C [Ex. 35, (S)-2-(1-((6-amino-5-(5-methyl-1,3,4-oxadiazol-2-yl)pyrimidin-4-yl)-amino)propyl)-5-chloro-3-(o-tolyl)quinazolin-4(3H)-one] | 8.87 | 280 |  |  |  |  |  | 37.9 | 45.9 | clearance (CL) ([3]; dose 0.5 mg/kg): 53 mL/min/kg; bioavailability ([3]; iv dose 0.5 mg/kg): 41.8%; AUC(0-t) ([3]; dose 0.5 mg/kg): 157 ng·h/mL; half-life ([3]; dose 0.5 mg/kg): 67.8 min; Vd ([3]; dose 0.5 mg/kg): 3.46 L/kg
CC[C@H](Nc1ncnc(N)c1-c1nnc(C)o1)c1nc2ccccc2c(=O)n1-c1ccccc1F [Ex. 24, (S)-2-(1-((6-amino-5-(5-methyl-1,3,4-oxadiazol-2-yl)pyrimidin-4-yl)amino)-propyl)-3-(2-fluorophenyl)quinazolin-4(3H)-one] | 5.42 | 458 |  |  |  |  |  | 17.1 | 146 | clearance (CL) ([3]; dose 0.48 mg/kg): 70.5 mL/min/kg; bioavailability ([3]; iv dose 0.48 mg/kg): 69.1%; AUC(0-t) ([3]; dose 0.48 mg/kg): 121 ng·h/mL; half-life ([3]; dose 0.48 mg/kg): 30.6 min; Vd ([3]; dose 0.48 mg/kg): 2.31 L/kg
CC[C@H](Nc1ncnc(N)c1-c1ncn(C)n1)c1nc2cccc(C)c2c(=O)n1-c1ccccc1C [Ex. 30, (S)-2-(1-((6-amino-5-(1-methyl-1H-1,2,4-triazol-3-yl)pyrimidin-4-yl)amino)-propyl)-5-methyl-3-(o-tolyl)quinazolin-4(3H)-one] | 8.46 | 294 | 70.5 | 22.4 | 238 | 51.6 | 3.84 | 17.8 | 140 | 
CC[C@H](Nc1ncnc(N)c1-c1noc(C)n1)c1nc2cccc(C)c2c(=O)n1C1CC1 | 20 | 124 |  | 40.5 | 393 | 158 | 6.07 | 19.6 | 126 | CL/F ([3]; dose 1 mg/kg): 40.3 mL/min/kg
CC[C@H](Nc1ncnc(N)c1-c1nc(C)co1)c1nc2cccc(C)c2c(=O)n1-c1ccccc1C [Ex. 29, (S)-2-(1-((6-amino-5-(4-methyloxazol-2-yl)pyrimidin-4-yl)amino)propyl)-5-methyl-3-(o-tolyl)quinazolin-4(3H)-one] | 1.92 | 1300 | 130 | 4.56 | 247 | 122 | 13.2 | 1.92 | 1290 | 
CC[C@H](Nc1ncnc(N)c1-c1noc(C)n1)c1nc2ccccc2c(=O)n1-c1ccccc1F | 2.69 | 923 |  | 8.88 | 143 | 63 | 7.21 | 11 | 227 | CL/F ([3]; dose 1 mg/kg): 118 mL/min/kg
CC[C@H](Nc1ncnc(N)c1-c1ncn(C)n1)c1nc2cccc(Cl)c2c(=O)n1-c1ccccc1F [Ex. 45, (S)-2-(1-((6-amino-5-(1-methyl-1H-1,2,4-triazol-3-yl)pyrimidin-4-yl)amino)-propyl)-5-chloro-3-(2-fluorophenyl)quinazolin-4(3H)-one] | 9 | 276 | 61.8 | 70.2 | 278 | 58.2 | 4.61 | 10.7 | 162 | 

Continued, in another order:

half-life at 5 μM [2] [min] | CLint scaled at 5 μM [2] [mL/min/kg] | clearance (CL) ([3]; dose 1 mg/kg) [mL/min/kg] | bioavailability ([3]; iv dose 1 mg/kg) [%] | AUC(0-t) ([3]; dose 1 mg/kg) [ng·h/mL] | half-life ([3]; dose 1 mg/kg) [min] | Vd ([3]; dose 1 mg/kg) [L/kg] | half-life at 5 μM [4] [min] | CLint scaled at 5 μM [4] [mL/min/kg] | Structure (SMILES) | other results
20.4 | 122 | 74.7 | 60.9 | 217 | 104 | 8.12 | 20 | 87 | CCc1noc(-c2c(N)ncnc2N[C@@H](CC)c2nc3cccc(Cl)c3c(=O)n2C2CC2)n1 [Ex. 56, (S)-2-(1-((6-amino-5-(3-ethyl-1,2,4-oxadiazol-5-yl)pyrimidin-4-yl)amino)-propyl)-5-chloro-3-cyclopropylquinazolin-4(3H)-one] | pIC50 [1]: 8.05
31 | 80.2 | 31.8 | 48.9 | 518 | 76.8 | 3.14 | 20.6 | 84.6 | CC[C@H](Nc1ncnc(N)c1-c1noc(C)n1)c1nc2cccc(Cl)c2c(=O)n1C1CC1 [Ex. 12, (S)-2-(1-((6-amino-5-(5-methyl-1,2,4-oxadiazol-3-yl)pyrimidin-4-yl)amino)-propyl)-5-chloro-3-cyclopropylquinazolin-4(3H)-one] | pIC50 [1]: 7.32
2.43 | 1020 | 85.3 | 4.37 | 196 | 39.6 | 4.1 | 43.8 | 39.7 | CC[C@@H](Nc1ncnc(N)c1-c1ccon1)c1nc2cccc(Cl)c2c(=O)n1C1CC1 [Ex. 49, (R)-2-(1-((6-amino-5-(isoxazol-3-yl)pyrimidin-4-yl)amino)propyl)-5-chloro-3-cyclopropylquinazolin-4(3H)-one] | 
3.86 | 644 | 55.8 | 20.2 | 300 | 42.6 | 3.65 | 6.1 | 285 | CC[C@H](Nc1ncnc(N)c1-c1nc(COC)n(C)n1)c1nc2cccc(Cl)c2c(=O)n1C1CC1 [Ex. 46, (S)-2-(1-((6-amino-5-(5-(methoxymethyl)-1-methyl-1H-1,2,4-triazol-3-yl)pyrimidin-4-yl)amino)propyl)-5-chloro-3-cyclopropylquinazolin-4(3H)-one] | 
56.8 | 43.8 | 27.3 | 158 | 608 | 78 | 2.12 | 160 | 10.9 | CC[C@H](Nc1ncnc(N)c1-c1ncnn1C)c1nc2cccc(Cl)c2c(=O)n1C1CC1 [Ex. 9, 2-((1S)-1-((6-amino-5-(1-methyl-1H-1,2,4-triazol-5-yl)pyrimidin-4-yl)amino)-propyl)-5-chloro-3-cyclopropylquinazolin-4(3H)-one] | 
 |  | 46.7 | 23.1 | 362 | 45.6 | 2.18 |  |  | CC[C@H](Nc1ncnc(N)c1-c1ccon1)c1nc2cccc(Cl)c2c(=O)n1C1CC1 [Ex. 14, (S)-2-(1-((6-amino-5-(isoxazol-3-yl)pyrimidin-4-yl)amino)propyl)-5-chloro-3-cyclopropylquinazolin-4(3H)-one] | pIC50 [1]: 7.70
19.7 | 126 | 68.7 | 18.3 | 249 | 45.6 | 4.3 | 22.9 | 108 | CC[C@H](Nc1ncnc(N)c1-c1noc(C)n1)c1nc2cccc(F)c2c(=O)n1C1CC1 [Ex. 16, (S)-2-(1-((6-amino-5-(5-methyl-1,2,4-oxadiazol-3-yl)pyrimidin-4-yl)amino)-propyl)-3-cyclopropyl-5-fluoroquinazolin-4(3H)-one] | 
122 | 20.4 | 26.2 | 106 | 580 | 143 | 5.03 | 61.8 | 28.1 | CC[C@H](Nc1ncnc(N)c1-c1nc(C(N)=O)n(C)n1)c1nc2cccc(Cl)c2c(=O)n1C1CC1 [Ex. 58, (S)-3-(4-amino-6-((1-(5-chloro-3-cyclopropyl-4-oxo-3,4-dihydroquinazolin-2-yl)propyl)amino)pyrimidin-5-yl)-1-methyl-1H-1,2,4-triazole-5-carboxamide] | 
